Assay results taken from publication PMC7026418, “The kinase polypharmacology landscape of clinical PARP inhibitors” (Scientific Reports, 2020).
Where two headings read alike, the source gives them in different places.

Experiments:
Assay in all cases: biochemical
Parameters in all cases: DiscoveRx KINOMEscan active site-directed competition binding; percent of control kinase bound to immobilised ligand
ASK1 = biological target: T1, ASK1 (Homo sapiens, UniProt Q99683)
T1 construct: gene MAP3K5
T1 sequence (Q99683 1-1374): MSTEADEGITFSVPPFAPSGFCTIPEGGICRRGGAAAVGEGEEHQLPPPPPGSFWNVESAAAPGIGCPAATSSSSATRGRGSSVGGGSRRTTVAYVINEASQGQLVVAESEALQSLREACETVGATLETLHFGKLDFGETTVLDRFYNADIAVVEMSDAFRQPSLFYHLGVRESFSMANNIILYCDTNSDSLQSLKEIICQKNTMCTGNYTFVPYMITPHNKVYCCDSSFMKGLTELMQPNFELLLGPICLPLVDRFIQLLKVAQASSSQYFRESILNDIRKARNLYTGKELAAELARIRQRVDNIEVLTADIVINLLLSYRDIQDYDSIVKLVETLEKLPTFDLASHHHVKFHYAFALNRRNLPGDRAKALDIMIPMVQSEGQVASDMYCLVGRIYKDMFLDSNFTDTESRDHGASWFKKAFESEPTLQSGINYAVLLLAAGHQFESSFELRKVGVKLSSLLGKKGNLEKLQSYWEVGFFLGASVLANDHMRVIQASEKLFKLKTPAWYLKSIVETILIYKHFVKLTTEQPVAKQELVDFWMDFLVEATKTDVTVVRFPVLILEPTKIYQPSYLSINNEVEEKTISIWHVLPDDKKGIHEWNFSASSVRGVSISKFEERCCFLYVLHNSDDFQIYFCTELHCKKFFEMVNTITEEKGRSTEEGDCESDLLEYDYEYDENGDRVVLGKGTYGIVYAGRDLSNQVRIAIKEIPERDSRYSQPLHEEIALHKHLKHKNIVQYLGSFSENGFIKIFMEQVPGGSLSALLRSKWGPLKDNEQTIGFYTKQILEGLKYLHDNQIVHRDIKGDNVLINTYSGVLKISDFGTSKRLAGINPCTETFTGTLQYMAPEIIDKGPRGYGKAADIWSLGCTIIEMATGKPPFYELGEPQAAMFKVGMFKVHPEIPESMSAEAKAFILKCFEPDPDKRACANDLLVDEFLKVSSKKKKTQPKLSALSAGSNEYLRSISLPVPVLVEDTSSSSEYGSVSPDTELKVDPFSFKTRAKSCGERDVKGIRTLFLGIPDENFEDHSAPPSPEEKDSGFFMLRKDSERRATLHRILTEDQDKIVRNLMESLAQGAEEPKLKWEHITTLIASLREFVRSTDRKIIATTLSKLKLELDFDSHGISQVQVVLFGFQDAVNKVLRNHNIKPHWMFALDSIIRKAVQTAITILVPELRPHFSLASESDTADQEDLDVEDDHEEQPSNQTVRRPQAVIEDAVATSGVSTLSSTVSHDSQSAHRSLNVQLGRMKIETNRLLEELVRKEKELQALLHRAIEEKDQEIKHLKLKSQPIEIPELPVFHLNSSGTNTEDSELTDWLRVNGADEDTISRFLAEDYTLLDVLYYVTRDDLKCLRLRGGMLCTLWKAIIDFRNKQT

FAK = biological target: T2, FAK (Homo sapiens, UniProt Q05397)
T2 construct: gene PTK2

HIPK2 = HIPK2 (Homo sapiens, UniProt Q9H2X6)
LCK = LCK (Homo sapiens, UniProt P06239)
NDR2 = biological target: T3, NDR2 (Homo sapiens, UniProt Q9Y2H1)
T3 construct: gene STK38L

PDGFRA = PDGFRA (Homo sapiens, UniProt P16234)
TAOK1 = biological target: T4, TAOK1 (Homo sapiens, UniProt Q7L7X3)
T4 sequence (Q7L7X3 1-1001): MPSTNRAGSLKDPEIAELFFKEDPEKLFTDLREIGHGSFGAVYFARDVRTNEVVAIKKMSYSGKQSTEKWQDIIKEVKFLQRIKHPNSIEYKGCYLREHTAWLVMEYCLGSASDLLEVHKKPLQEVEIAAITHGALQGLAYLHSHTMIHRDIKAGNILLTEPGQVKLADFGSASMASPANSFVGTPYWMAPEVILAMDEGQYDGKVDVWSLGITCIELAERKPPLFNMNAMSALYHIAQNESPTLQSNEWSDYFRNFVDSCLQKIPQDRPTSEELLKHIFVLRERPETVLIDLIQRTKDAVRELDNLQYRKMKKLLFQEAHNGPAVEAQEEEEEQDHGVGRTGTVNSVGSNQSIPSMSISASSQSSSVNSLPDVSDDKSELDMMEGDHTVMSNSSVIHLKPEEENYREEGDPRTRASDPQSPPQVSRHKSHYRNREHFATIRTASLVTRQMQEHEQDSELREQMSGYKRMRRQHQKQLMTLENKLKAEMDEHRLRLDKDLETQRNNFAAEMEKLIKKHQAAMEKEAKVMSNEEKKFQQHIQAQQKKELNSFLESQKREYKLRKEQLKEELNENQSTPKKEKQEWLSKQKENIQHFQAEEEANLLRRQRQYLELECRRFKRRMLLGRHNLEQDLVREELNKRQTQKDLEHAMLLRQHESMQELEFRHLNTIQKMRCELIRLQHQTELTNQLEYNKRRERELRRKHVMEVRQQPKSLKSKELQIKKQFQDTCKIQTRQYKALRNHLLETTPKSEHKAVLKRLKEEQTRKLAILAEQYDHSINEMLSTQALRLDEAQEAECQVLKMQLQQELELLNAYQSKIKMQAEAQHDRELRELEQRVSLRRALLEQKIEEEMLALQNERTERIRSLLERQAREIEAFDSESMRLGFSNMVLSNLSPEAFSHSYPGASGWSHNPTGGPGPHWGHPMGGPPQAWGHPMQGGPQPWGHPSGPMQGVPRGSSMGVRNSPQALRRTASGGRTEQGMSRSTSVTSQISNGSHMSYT

[1] = read-out: Niraparib (MK-4827) / %Ctrl @ 10000nM
[2] = read-out: Olaparib / %Ctrl @ 10000nM
[3] = read-out: Rucaparib / %Ctrl @ 10000nM, binding competition, % of control
[4] = read-out: Talazoparib (BMN 673) / %Ctrl @ 10000nM

Sequence of HIPK2 (Q9H2X6 whole entry): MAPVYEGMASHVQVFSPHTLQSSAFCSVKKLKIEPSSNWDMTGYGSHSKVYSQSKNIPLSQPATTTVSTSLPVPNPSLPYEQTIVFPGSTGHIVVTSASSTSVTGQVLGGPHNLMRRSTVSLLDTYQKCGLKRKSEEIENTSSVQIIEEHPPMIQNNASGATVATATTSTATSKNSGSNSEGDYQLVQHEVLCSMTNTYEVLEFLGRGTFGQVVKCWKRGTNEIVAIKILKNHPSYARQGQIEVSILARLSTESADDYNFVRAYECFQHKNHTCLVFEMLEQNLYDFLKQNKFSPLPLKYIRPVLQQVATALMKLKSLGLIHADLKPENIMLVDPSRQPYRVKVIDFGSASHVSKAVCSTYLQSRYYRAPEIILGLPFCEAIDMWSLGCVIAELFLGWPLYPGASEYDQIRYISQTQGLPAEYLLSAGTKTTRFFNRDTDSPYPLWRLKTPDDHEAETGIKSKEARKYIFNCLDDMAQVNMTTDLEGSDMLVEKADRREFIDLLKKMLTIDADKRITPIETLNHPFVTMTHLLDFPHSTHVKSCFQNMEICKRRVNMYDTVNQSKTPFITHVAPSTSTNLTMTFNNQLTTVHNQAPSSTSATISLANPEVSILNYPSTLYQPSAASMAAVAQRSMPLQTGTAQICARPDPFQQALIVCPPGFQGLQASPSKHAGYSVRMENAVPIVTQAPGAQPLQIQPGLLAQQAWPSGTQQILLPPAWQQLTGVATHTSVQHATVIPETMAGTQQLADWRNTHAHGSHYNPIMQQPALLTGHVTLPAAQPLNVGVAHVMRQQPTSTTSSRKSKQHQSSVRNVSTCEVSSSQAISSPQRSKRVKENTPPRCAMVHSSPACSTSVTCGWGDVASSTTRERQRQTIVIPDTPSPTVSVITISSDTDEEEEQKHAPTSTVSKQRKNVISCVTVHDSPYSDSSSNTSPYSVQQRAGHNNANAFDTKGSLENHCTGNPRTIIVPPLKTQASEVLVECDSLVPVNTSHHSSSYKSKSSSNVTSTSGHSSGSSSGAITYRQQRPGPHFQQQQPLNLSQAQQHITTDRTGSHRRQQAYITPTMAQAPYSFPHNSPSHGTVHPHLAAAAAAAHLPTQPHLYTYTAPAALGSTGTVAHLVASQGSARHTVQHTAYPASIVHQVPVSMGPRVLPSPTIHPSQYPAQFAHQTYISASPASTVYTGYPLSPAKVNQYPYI
Sequence of LCK (P06239 whole entry): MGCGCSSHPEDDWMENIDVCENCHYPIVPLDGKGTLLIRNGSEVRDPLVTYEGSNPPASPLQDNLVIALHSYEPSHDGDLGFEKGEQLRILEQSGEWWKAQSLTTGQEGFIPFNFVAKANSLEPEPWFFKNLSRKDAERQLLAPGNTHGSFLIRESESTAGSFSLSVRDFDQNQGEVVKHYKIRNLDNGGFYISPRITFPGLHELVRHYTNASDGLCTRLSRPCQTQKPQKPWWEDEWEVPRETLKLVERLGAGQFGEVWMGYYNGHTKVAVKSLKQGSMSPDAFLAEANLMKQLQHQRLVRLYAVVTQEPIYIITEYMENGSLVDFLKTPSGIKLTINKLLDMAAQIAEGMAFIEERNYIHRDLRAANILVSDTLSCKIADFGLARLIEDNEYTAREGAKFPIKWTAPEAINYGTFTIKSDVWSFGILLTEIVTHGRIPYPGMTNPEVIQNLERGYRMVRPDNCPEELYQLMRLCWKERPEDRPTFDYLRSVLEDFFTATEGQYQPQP
T3 sequence (Q9Y2H1 whole entry): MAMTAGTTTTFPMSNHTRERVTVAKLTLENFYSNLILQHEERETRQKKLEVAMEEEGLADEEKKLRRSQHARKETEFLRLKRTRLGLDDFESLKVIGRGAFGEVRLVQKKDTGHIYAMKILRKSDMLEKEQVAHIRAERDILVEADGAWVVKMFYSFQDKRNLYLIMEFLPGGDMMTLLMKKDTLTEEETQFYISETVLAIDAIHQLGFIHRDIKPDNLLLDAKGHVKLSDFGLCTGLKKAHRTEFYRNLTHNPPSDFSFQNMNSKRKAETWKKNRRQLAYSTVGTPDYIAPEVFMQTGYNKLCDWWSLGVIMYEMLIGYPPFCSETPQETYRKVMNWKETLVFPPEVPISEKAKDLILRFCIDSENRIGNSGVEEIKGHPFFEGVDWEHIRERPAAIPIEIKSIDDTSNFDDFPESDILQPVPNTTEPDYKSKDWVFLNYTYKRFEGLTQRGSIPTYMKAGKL
T2 sequence (Q05397 whole entry): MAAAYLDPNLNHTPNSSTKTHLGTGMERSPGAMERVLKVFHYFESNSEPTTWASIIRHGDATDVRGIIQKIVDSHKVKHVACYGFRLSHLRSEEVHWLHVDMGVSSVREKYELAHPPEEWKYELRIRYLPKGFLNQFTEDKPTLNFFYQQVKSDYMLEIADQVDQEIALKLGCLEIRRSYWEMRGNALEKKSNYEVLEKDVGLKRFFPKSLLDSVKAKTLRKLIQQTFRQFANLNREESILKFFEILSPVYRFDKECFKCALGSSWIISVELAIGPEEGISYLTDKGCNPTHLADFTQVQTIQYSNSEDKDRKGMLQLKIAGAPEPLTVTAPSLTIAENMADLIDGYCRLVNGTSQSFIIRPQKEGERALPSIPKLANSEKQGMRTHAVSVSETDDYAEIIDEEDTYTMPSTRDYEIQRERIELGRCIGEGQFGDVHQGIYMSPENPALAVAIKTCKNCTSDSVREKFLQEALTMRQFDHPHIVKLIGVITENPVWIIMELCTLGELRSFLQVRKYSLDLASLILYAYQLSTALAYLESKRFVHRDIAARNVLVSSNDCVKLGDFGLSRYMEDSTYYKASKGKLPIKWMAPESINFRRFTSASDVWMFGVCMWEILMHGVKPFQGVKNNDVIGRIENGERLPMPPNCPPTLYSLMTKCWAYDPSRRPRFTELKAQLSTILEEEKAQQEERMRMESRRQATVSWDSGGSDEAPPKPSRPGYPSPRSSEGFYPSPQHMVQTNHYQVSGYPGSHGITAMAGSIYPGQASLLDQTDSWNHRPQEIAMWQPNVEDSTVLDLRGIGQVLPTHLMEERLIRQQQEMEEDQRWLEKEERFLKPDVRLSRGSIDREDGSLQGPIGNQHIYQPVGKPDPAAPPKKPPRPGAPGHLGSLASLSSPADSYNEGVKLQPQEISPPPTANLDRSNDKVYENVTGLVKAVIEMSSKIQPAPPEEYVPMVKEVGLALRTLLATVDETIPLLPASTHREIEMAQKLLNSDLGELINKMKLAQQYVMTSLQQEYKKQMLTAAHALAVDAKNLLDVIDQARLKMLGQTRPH
Sequence of PDGFRA (P16234 whole entry): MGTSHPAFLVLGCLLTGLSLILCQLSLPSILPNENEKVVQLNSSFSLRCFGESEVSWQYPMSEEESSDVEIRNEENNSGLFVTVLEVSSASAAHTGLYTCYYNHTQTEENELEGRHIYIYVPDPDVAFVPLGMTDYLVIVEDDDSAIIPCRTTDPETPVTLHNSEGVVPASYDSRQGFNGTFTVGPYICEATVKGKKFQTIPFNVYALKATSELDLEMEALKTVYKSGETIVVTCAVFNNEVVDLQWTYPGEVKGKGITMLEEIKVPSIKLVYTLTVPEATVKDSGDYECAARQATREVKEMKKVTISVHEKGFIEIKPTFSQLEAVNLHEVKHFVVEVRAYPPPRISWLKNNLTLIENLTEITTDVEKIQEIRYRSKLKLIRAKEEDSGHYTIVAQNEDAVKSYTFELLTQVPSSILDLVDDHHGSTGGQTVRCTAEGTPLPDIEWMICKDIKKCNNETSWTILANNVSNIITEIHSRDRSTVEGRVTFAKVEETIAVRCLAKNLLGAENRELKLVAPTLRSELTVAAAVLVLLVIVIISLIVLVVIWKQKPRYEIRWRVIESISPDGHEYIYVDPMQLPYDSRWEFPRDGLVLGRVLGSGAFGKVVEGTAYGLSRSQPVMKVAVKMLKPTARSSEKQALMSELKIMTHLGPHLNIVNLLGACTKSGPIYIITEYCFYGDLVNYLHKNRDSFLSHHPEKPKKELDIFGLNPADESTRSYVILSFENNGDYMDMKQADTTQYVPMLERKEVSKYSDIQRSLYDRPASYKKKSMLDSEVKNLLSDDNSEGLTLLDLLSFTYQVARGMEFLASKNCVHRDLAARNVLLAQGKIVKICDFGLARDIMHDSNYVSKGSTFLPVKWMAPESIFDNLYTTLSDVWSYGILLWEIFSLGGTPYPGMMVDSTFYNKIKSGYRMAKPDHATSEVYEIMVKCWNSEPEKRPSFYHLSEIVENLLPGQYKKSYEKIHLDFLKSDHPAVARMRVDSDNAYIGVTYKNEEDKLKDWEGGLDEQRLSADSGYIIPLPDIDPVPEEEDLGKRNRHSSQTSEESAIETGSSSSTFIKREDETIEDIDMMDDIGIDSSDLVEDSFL

NC(=O)c1cccc2cn(-c3ccc([C@@H]4CCCNC4)cc3)nc12 [Niraparib]
percent of control binding at 10 µM (ASK1; [1]): 90% | percent of control binding at 10 µM (FAK; [1]): 100% | percent of control binding at 10 µM (HIPK2; [1]): 1.1% | percent of control binding at 10 µM (LCK; [1]): 82% | percent of control binding at 10 µM (NDR2; [1]): 77% | percent of control binding at 10 µM (PDGFRA; [1]): 69% | percent of control binding at 10 µM (TAOK1; [1]): 80%

O=C(c1cc(Cc2n[nH]c(=O)c3ccccc23)ccc1F)N1CCN(C(=O)C2CC2)CC1 [Olaparib]
percent of control binding at 10 µM (ASK1; [2]): 94% | percent of control binding at 10 µM (FAK; [2]): 100% | percent of control binding at 10 µM (HIPK2; [2]): 95% | percent of control binding at 10 µM (LCK; [2]): 100% | percent of control binding at 10 µM (NDR2; [2]): 97% | percent of control binding at 10 µM (PDGFRA; [2]): 75% | percent of control binding at 10 µM (TAOK1; [2]): 96%

CNCc1ccc(-c2[nH]c3cc(F)cc4c3c2CCNC4=O)cc1 [Rucaparib]
percent of control binding at 10 µM (ASK1; [3]): 92% | percent of control binding at 10 µM (FAK; [3]): 100% | percent of control binding at 10 µM (HIPK2; [3]): 5.1% | percent of control binding at 10 µM (LCK; [3]): 95% | percent of control binding at 10 µM (NDR2; [3]): 86% | percent of control binding at 10 µM (PDGFRA; [3]): 53% | percent of control binding at 10 µM (TAOK1; [3]): 72%

Cn1ncnc1[C@H]1c2n[nH]c(=O)c3cc(F)cc(c23)N[C@@H]1c1ccc(F)cc1 [Talazoparib]
percent of control binding at 10 µM (ASK1; [4]): 93% | percent of control binding at 10 µM (FAK; [4]): 100% | percent of control binding at 10 µM (HIPK2; [4]): 99% | percent of control binding at 10 µM (LCK; [4]): 90% | percent of control binding at 10 µM (NDR2; [4]): 83% | percent of control binding at 10 µM (PDGFRA; [4]): 99% | percent of control binding at 10 µM (TAOK1; [4]): 100%
